Measured values as given in US9982019B2, “Glycopeptide compound or pharmaceutical salt thereof and method for preparing same, and pharmaceutical compositions and applications thereof” (priority 2012, dated 2018).

Key:
[1] = tested on: Feces enterococci (VSE clinical isolates: MEFA 0039); test: In vitro antibacterial activity, agar two times dilution method, MIC; assay type: cell-based; settings: agar dilution; VSE clinical isolate MEFA 0039
From the text: (§1) Testing results of in vitro antibacterial activity of some target compounds of the present invention are as follows:
(§2) Drugs: firstly being dissolved in DMSO, and then being diluted to an appropriate concentration with sterile water, and afterwards successively being diluted for twice.
(§3) Determination: referencing the standard of CSSI 2008 version, using a agar two times dilution method, determine the minimum inhibitory concentration (MIC values).
(§4) Feces enterococci (VSE clinical isolates: MEFA 0039); Streptococcus pneumoniae (PISP: ATCC 49619).
(§5) 3. Positive Control Drug is Vancomycin Hydrochloride.

[2] = tested on: Streptococcus pneumoniae (PISP: ATCC 49619); test: as above; assay type: cell-based; settings: for MIC Values of Compounds, Streptococcus pneumoniae: agar dilution, PISP ATCC 49619; for activity against streptococcus pneumoniae relative to vancomycin: compared with positive control vancomycin
From the text: as §1, §2, §3, §4, §5

| Compound | MIC Values of Compounds, Enterococci [1] | MIC Values of Compounds, Streptococcus pneumoniae [2] | activity against streptococcus pneumoniae relative to vancomycin [2] |
| --- | --- | --- | --- |
| CNC(CC(C)C)C(=O)NC1C(=O)NC(CC(N)=O)C(=O)NC2C(=O)NC3C(=O)NC(C(=O)NC(C(=O)O)c4cc(O)c(CNCP(=O)(O)O)c(O)c4-c4cc3ccc4O)C(OC3CC(C)(N)C(O)C(C)O3)c3ccc(c(Cl)c3)Oc3cc2cc(c3OC2OC(CO)C(O)C(O)C2OC2CC(C)(N)C(O)C(C)O2)Oc2ccc(cc2Cl)C1O (stereo not shown) [Compound I1] | 0.5 µg/mL | 0.125 µg/mL |  |
| CNC(CC(C)C)C(=O)NC1C(=O)NC(CC(N)=O)C(=O)NC2C(=O)NC3C(=O)NC(C(=O)NC(C(=O)O)c4cc(O)c(CN5CCOCC5)c(O)c4-c4cc3ccc4O)C(OC3CC(C)(N)C(O)C(C)O3)c3ccc(c(Cl)c3)Oc3cc2cc(c3OC2OC(CO)C(O)C(O)C2OC2CC(C)(N)C(O)C(C)O2)Oc2ccc(cc2Cl)C1O (stereo not shown) [Compound I2] | 0.5 µg/mL | 0.063 µg/mL |  |
| CCCCCCCCCCNC1(C)CC(OC2c3ccc(c(Cl)c3)Oc3cc4cc(c3OC3OC(CO)C(O)C(O)C3OC3CC(C)(NCCCCCCCCCC)C(O)C(C)O3)Oc3ccc(cc3Cl)C(O)C(NC(=O)C(CC(C)C)N(C)CCCCCCCCCC)C(=O)NC(CC(N)=O)C(=O)NC4C(=O)NC3C(=O)NC2C(=O)NC(C(=O)O)c2cc(O)c(CNCCCC)c(O)c2-c2cc3ccc2O)OC(C)C1O (stereo not shown) [Compound I4] | >8 µg/mL | >8 µg/mL |  |
| CNC(CC(C)C)C(=O)NC1C(=O)NC(CC(N)=O)C(=O)NC2C(=O)NC3C(=O)NC(C(=O)NC(C(=O)O)c4cc(O)c(CN5CCOCC5)c(O)c4-c4cc3ccc4O)C(OC3CC(C)(N)C(O)C(C)O3)c3ccc(c(Cl)c3)Oc3cc2cc(c3OC2OC(CO)C(O)C(O)C2OC2CC(C)(NCc3ccccc3Br)C(O)C(C)O2)Oc2ccc(cc2Cl)C1O (stereo not shown) [Compound I5] | 0.25 µg/mL | 0.125 µg/mL |  |
| CCN(CC)Cc1c(O)cc2c(c1O)-c1cc(ccc1O)C1NC(=O)C3NC(=O)C(CC(N)=O)NC(=O)C(NC(=O)C(CC(C)C)NC)C(O)c4ccc(c(Cl)c4)Oc4cc3cc(c4OC3OC(CO)C(O)C(O)C3OC3CC(C)(NCc4ccccc4Br)C(O)C(C)O3)Oc3ccc(cc3Cl)C(OC3CC(C)(N)C(O)C(C)O3)C(NC1=O)C(=O)NC2C(=O)O (stereo not shown) [Compound I6] | 1 µg/mL | 0.25 µg/mL |  |
| CCCCNCc1c(O)cc2c(c1O)-c1cc(ccc1O)C1NC(=O)C3NC(=O)C(CC(N)=O)NC(=O)C(NC(=O)C(CC(C)C)NC)C(O)c4ccc(c(Cl)c4)Oc4cc3cc(c4OC3OC(CO)C(O)C(O)C3OC3CC(C)(NCc4ccccc4Br)C(O)C(C)O3)Oc3ccc(cc3Cl)C(OC3CC(C)(N)C(O)C(C)O3)C(NC1=O)C(=O)NC2C(=O)O (stereo not shown) [Compound I7] | 1 µg/mL | 0.5 µg/mL |  |
| CNC(CC(C)C)C(=O)NC1C(=O)NC(CC(N)=O)C(=O)NC2C(=O)NC3C(=O)NC(C(=O)NC(C(=O)O)c4cc(O)c(CN5CCOCC5)c(O)c4-c4cc3ccc4O)C(OC3CC(C)(N)C(O)C(C)O3)c3ccc(c(Cl)c3)Oc3cc2cc(c3OC2OC(CO)C(O)C(O)C2OC2CC(C)(NCc3cccc(Br)c3)C(O)C(C)O2)Oc2ccc(cc2Cl)C1O (stereo not shown) [Compound I8] | 0.25 µg/mL | 0.063 µg/mL |  |
| CNC(CC(C)C)C(=O)NC1C(=O)NC(CC(N)=O)C(=O)NC2C(=O)NC3C(=O)NC(C(=O)NC(C(=O)O)c4cc(O)c(CN5CCOCC5)c(O)c4-c4cc3ccc4O)C(OC3CC(C)(N)C(O)C(C)O3)c3ccc(c(Cl)c3)Oc3cc2cc(c3OC2OC(CO)C(O)C(O)C2OC2CC(C)(NCc3ccc(Br)cc3)C(O)C(C)O2)Oc2ccc(cc2Cl)C1O (stereo not shown) [Compound I9] | 0.25 µg/mL | ≤0.031 µg/mL | more four times than vancomycin |
| CCN(CC)Cc1c(O)cc2c(c1O)-c1cc(ccc1O)C1NC(=O)C3NC(=O)C(CC(N)=O)NC(=O)C(NC(=O)C(CC(C)C)NC)C(O)c4ccc(c(Cl)c4)Oc4cc3cc(c4OC3OC(CO)C(O)C(O)C3OC3CC(C)(NCc4ccc(Br)cc4)C(O)C(C)O3)Oc3ccc(cc3Cl)C(OC3CC(C)(N)C(O)C(C)O3)C(NC1=O)C(=O)NC2C(=O)O (stereo not shown) [Compound I10] | 2 µg/mL | 0.25 µg/mL |  |
| CCCCNCc1c(O)cc2c(c1O)-c1cc(ccc1O)C1NC(=O)C3NC(=O)C(CC(N)=O)NC(=O)C(NC(=O)C(CC(C)C)NC)C(O)c4ccc(c(Cl)c4)Oc4cc3cc(c4OC3OC(CO)C(O)C(O)C3OC3CC(C)(NCc4ccc(Br)cc4)C(O)C(C)O3)Oc3ccc(cc3Cl)C(OC3CC(C)(N)C(O)C(C)O3)C(NC1=O)C(=O)NC2C(=O)O (stereo not shown) [Compound I11] | 1 µg/mL | 0.25 µg/mL |  |
| CNC(CC(C)C)C(=O)NC1C(=O)NC(CC(N)=O)C(=O)NC2C(=O)NC3C(=O)NC(C(=O)NC(C(=O)O)c4cc(O)c(CN5CCOCC5)c(O)c4-c4cc3ccc4O)C(OC3CC(C)(N)C(O)C(C)O3)c3ccc(c(Cl)c3)Oc3cc2cc(c3OC2OC(CO)C(O)C(O)C2OC2CC(C)(NCc3ccc(OC)cc3)C(O)C(C)O2)Oc2ccc(cc2Cl)C1O (stereo not shown) [Compound I12] | 2 µg/mL | 1 µg/mL |  |
| CNC(CC(C)C)C(=O)NC1C(=O)NC(CC(N)=O)C(=O)NC2C(=O)NC3C(=O)NC(C(=O)NC(C(=O)O)c4cc(O)c(CN5CCOCC5)c(O)c4-c4cc3ccc4O)C(OC3CC(C)(N)C(O)C(C)O3)c3ccc(c(Cl)c3)Oc3cc2cc(c3OC2OC(CO)C(O)C(O)C2OC2CC(C)(NCc3ccc(C(C)C)cc3)C(O)C(C)O2)Oc2ccc(cc2Cl)C1O (stereo not shown) [Compound I13] | 1 µg/mL | 0.25 µg/mL |  |
| CCCCNCc1c(O)cc2c(c1O)-c1cc(ccc1O)C1NC(=O)C3NC(=O)C(CC(N)=O)NC(=O)C(NC(=O)C(CC(C)C)NC)C(O)c4ccc(c(Cl)c4)Oc4cc3cc(c4OC3OC(CO)C(O)C(O)C3OC3CC(C)(NCc4ccc(C(C)C)cc4)C(O)C(C)O3)Oc3ccc(cc3Cl)C(OC3CC(C)(N)C(O)C(C)O3)C(NC1=O)C(=O)NC2C(=O)O (stereo not shown) [Compound I14] | 0.5 µg/mL | ≤0.031 µg/mL | more four times than vancomycin |
| CCCCNCc1c(O)cc2c(c1O)-c1cc(ccc1O)C1NC(=O)C3NC(=O)C(CC(N)=O)NC(=O)C(N4CN(C)C(CC(C)C)C4=O)C(O)c4ccc(c(Cl)c4)Oc4cc3cc(c4OC3OC(CO)C(O)C(O)C3OC3CC(C)(N)C(O)C(C)O3)Oc3ccc(cc3Cl)C(OC3CC(C)(N)C(O)C(C)O3)C(NC1=O)C(=O)NC2C(=O)O (stereo not shown) [II1] | 0.25 µg/mL | 0.125 µg/mL |  |
| CCN(CC)Cc1c(O)cc2c(c1O)-c1cc(ccc1O)C1NC(=O)C3NC(=O)C(CC(N)=O)NC(=O)C(N4CN(C)C(CC(C)C)C4=O)C(O)c4ccc(c(Cl)c4)Oc4cc3cc(c4OC3OC(CO)C(O)C(O)C3OC3CC(C)(NCc4ccccc4Br)C(O)C(C)O3)Oc3ccc(cc3Cl)C(OC3CC(C)(N)C(O)C(C)O3)C(NC1=O)C(=O)NC2C(=O)O (stereo not shown) [II2] | 2 µg/mL | 0.5 µg/mL |  |
| CCCCNCc1c(O)cc2c(c1O)-c1cc(ccc1O)C1NC(=O)C3NC(=O)C(CC(N)=O)NC(=O)C(N4CN(C)C(CC(C)C)C4=O)C(O)c4ccc(c(Cl)c4)Oc4cc3cc(c4OC3OC(CO)C(O)C(O)C3OC3CC(C)(NCc4ccccc4Br)C(O)C(C)O3)Oc3ccc(cc3Cl)C(OC3CC(C)(N)C(O)C(C)O3)C(NC1=O)C(=O)NC2C(=O)O (stereo not shown) [II3] | 2 µg/mL | 0.25 µg/mL |  |
| CCN(CC)Cc1c(O)cc2c(c1O)-c1cc(ccc1O)C1NC(=O)C3NC(=O)C(CC(N)=O)NC(=O)C(N4CN(C)C(CC(C)C)C4=O)C(O)c4ccc(c(Cl)c4)Oc4cc3cc(c4OC3OC(CO)C(O)C(O)C3OC3CC(C)(NCc4cccc(Br)c4)C(O)C(C)O3)Oc3ccc(cc3Cl)C(OC3CC(C)(N)C(O)C(C)O3)C(NC1=O)C(=O)NC2C(=O)O (stereo not shown) [II4] | 2 µg/mL | 0.25 µg/mL |  |
| CCCCNCc1c(O)cc2c(c1O)-c1cc(ccc1O)C1NC(=O)C3NC(=O)C(CC(N)=O)NC(=O)C(N4CN(C)C(CC(C)C)C4=O)C(O)c4ccc(c(Cl)c4)Oc4cc3cc(c4OC3OC(CO)C(O)C(O)C3OC3CC(C)(NCc4cccc(Br)c4)C(O)C(C)O3)Oc3ccc(cc3Cl)C(OC3CC(C)(N)C(O)C(C)O3)C(NC1=O)C(=O)NC2C(=O)O (stereo not shown) [II5] | 1 µg/mL | 0.25 µg/mL |  |
| CC(C)CC1C(=O)N(C2C(=O)NC(CC(N)=O)C(=O)NC3C(=O)NC4C(=O)NC(C(=O)NC(C(=O)O)c5cc(O)c(CN6CCOCC6)c(O)c5-c5cc4ccc5O)C(OC4CC(C)(N)C(O)C(C)O4)c4ccc(c(Cl)c4)Oc4cc3cc(c4OC3OC(CO)C(O)C(O)C3OC3CC(C)(NCc4cccc(Br)c4)C(O)C(C)O3)Oc3ccc(cc3Cl)C2O)CN1C (stereo not shown) [II6] | 2 µg/mL | 0.25 µg/mL |  |
